# Publication PMC4297247 (Molecular cancer therapeutics, 2014)
# Experiments:
# [1] = system: cell lines of the LAR subtype; settings: cited from earlier work
# [2] = system: basal-like TNBCs; settings: cell lines and clinically; cited from earlier work
# [3] = system: mesenchymal-like cell lines, BT549, Hs578T, and MDA-MB231; assay: Kinase inhibitor screen, CellTiter Glo cell viability, one week; assay type: cell-based, human; settings: did not reach statistical significance (p = 0.12)
# [4] = system: mesenchymal-like TNBC cell lines; settings: cited from earlier work
smiles,measurement,setting,value
CC(O)(CS(=O)(=O)c1ccc(F)cc1)C(=O)Nc1ccc(C#N)c(C(F)(F)F)c1 (stereo not shown) [bicalutamide],selective toxicity by TNBC subtype,[1],selectively toxic to cell lines of the LAR subtype
N.N.[Cl][Pt][Cl] [cisplatin],toxicity by TNBC subtype,[2],more toxic to basal-like TNBCs
Cc1nc(Nc2ncc(C(=O)Nc3c(C)cccc3Cl)s2)cc(N2CCN(CCO)CC2)n1 [dasatinib],sensitivity compared to cells of other TNBC subtypes,[3],more sensitive to dasatinib than cells of other TNBC subtypes
same,preferential toxicity by TNBC subtype,[4],preferential toxicity for mesenchymal-like TNBC cell lines
